Assay results from patent US8063035B2, “Triazolyl aminopyrimidine compounds” (Eli Lilly and Company, priority 2007, dated 2011).
Read-outs that look alike come from different tables or passages of the source.

Columns and labels:
[1] = in man; cited from earlier work
HCT116 = HCT116 murine xenograft; cited from earlier work
[2] = in man, phase II clinical trials; cited from earlier work
NCIH460 = NCIH460 murine xenograft; cited from earlier work
A549 = A549 murine xenograft; cited from earlier work
HCT116 cells = assay: Antiproliferative Assay; type: cell-based; conditions: Homo sapiens, HCT-116, 72 hours, Alamar Blue, n=2, MSR 3.1
Method: The effects of compounds on cell proliferation can be determined using cells and cell proliferation methods well-known in the art (Robert C. Squatrito et al., Gynecological Oncology, 58, 101-105, (1995)). For example, HCT116 cells, which may be obtained from the American Type Culture Collection, may be seeded at ˜2000 cells/well in 96-well plates and allowed to attach overnight in a humidified CO2 incubator at 37° C. Following the 20-24 hour incubation, half-log serially diluted compounds are added and the plates are returned to the incubator. After an appropriate length of exposure (e.g., 72 hours), cell proliferation is estimated using well-known methods. In one method, 10 μL of a tetrazolium salt, such as Alamar Blue™ is added to the cell plates.

[3] = biological target: T1, Plk1-Flag-His6 tag fusion enzyme (Homo sapiens, UniProt P53350); assay: Plk1 Inhibition Assay; type: biochemical; conditions: absolute IC50, 5.0 μM ATP, GST-Cdc25c (1-206) substrate, 60 min; MSR 3.6
T1 construct: FLAG (C); His6 (C); made in house; host or cells: Sf9 insect cells (baculovirus, pFastBac), treated with okadaic acid before harvest; The substrate was made in E. coli BL21 (pGEX-2T)
T1 sequence (P53350 whole entry, the tested form may be a part): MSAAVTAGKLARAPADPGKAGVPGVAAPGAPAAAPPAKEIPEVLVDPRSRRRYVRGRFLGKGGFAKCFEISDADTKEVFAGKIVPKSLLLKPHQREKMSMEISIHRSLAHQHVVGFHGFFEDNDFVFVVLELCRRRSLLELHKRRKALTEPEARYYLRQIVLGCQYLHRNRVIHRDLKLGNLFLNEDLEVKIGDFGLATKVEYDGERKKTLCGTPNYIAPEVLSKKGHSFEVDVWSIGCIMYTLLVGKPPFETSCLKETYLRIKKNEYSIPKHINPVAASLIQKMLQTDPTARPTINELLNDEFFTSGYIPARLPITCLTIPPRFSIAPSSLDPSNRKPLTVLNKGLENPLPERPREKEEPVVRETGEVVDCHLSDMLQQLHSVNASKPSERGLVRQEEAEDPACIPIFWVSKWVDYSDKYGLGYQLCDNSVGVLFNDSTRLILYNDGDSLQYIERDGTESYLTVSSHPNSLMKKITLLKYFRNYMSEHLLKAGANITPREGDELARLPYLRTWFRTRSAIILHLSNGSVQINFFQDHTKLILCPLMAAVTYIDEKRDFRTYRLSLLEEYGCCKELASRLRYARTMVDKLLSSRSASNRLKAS
Excerpt: Human Plk1 cDNA may be directly linked at one of its termini with a polynucleotide sequence expressing a His6 tag, such as the C-terminal FLAG-His6 tag, and inserted into an appropriate expression vector, such as a pFastBac™ vector (Invitrogen) and transfected into an appropriate system, such as baculovirus similar to what has been reported by Yue-Wei Qian, et al., Science, 282, 1701 (1998) for xPlkk1. If a viral expression system is used, then the virus (e.g., baculovirus bearing a Plk1-Flag-His6 tag polynucleotide construct) is infected into a culture of a suitable host cell, such as Sf9 cells. […]
Plk1 kinase reactions contain Plk1-Flag-His6 tag fusion enzyme (0.2 ng/μL) in a buffer containing 50 mM HEPES, pH 7.3, 1.0 mM dithiothreitol, 5.0 μM ATP, 10 mM MgCl2, 0.01% TRITON® X-100, 0.4 μCi ^33P-ATP, and […] GST-Cdc25c (1-206) peptide. […] Wells are dried before addition of 40 μL of MicroScint™20 (Packard) and then counted on a Wallac MICROBETA® Jet. The percentage inhibition values from the 10-point concentration response data are subsequently analyzed, for example, using ACTIVITY BASE™ software (IDBS), using a 4-parameter logistic equation. Absolute IC50 values are calculated from the resulting curve fit.

HeLa Cells = assay: pHH3(S10), Mitotic Cells, and DNA Content Assays; type: cell-based; conditions: Homo sapiens, 23 hours exposure
Method: HeLa Cells are plated at 200 cells/well in 96 well […] BIOCOAT™ plates, and are incubated in MEM (Minimum Essential Medium) with 10% FBS (Fetal Bovine Serum) in 37° C., 5% CO2 for 24 hours. Cells are treated by adding compound (in 0.25% DMSO) to the medium, dosing at 10 points across the range 0.5 μM to 0.0098 μM. After 23 hours exposure to the compounds, cells are fixed, for example with the PREFER™ fixative for 30 min then are permeablized with 0.1% TRITON® X100 in phospate buffered saline (PBS) solution for 15 min. Cells are washed 3 times with PBS then digested with 50 μg/mL RNAse. Primary antibody, anti-phosphohistone H3 Serine 10, is added at 1:500 in PBS with 1% bovine serum albumin (BSA) to the cells over night at 4° C. After 3 PBS washes, cells are incubated with Alexa488 labeled secondary antibody for 1 hour at room temperature. Again they are washed 3 times with PBS, and then 15 μM propidium iodide is added for 30 min to stain nuclei. Fluorescence Plates are scanned with ACUMEN EXPLORER™ [Laser-scanning fluorescence microplate cytometer (comprising of 488 nm argon ion laser excitation and multiple photomultiplier tube detection), manufactured by TTP LABTECH LTD] to measure phosphohistone H3, DNA content and mitotic cells as measured by DNA condensation. Image analysis are based on cellular fluorescent signals for identifying cells in different subpopulations. pHH3(S10) positive cells are identified by mean intensity at 500-530 nm above the threshold. Total intensity at 655-705 nm from propidium iodide/DNA is used to identify individual cells (cells with DNA content from 2N to 4N) and subpopulations in cell cycle (2N cells, 4N cells). Peak intensity at 575-640 nm is used to identify DNA condensation that is used as the marker to identify mitotic cells among 4N cells. Assay outputs are percentage of each identified subpopulations, % pHH3, % 2N, % 4N, % mitotic and total cell number. The EC50 is determined by curve fitting to a four parameter logistic for each output using ACTIVITY BASE™.

IC50 (HCT116 cells) | IC50 [3] | EC50 (HeLa Cells; MSR 2.4, read-out: DNA content EC50) | EC50 (HeLa Cells; MSR 2.5, read-out: mitotic EC50) | EC50 (HeLa Cells; MSR 2.6, read-out: pHH3(s10) EC50) | Structure (SMILES) | clearance (CL) [1] | activity in preclinical model (HCT116) | dose-limiting toxicity [2] | activity in preclinical model (NCIH460) | activity in preclinical model (A549)
 |  |  |  |  | CC[C@@H]1C(=O)N(C)c2cnc(Nc3ccc(C(=O)NC4CCN(C)CC4)cc3OC)nc2N1C1CCCC1 [BI-2536] | > 1000 mL/min | demonstrated activity | dose limited by myelosupression | demonstrated activity | demonstrated activity
119 nM | 11 nM | 40 nM | 36 nM | 37 nM | CC(N)c1ccc(F)cc1-c1cccc2cc(-c3nc(NCCn4ccnn4)ncc3F)sc12 (racemic) [Example 57, N-(2-(1H-1,2,3-Triazol-1-yl)ethyl)-4-(7-(2-(1-amino-ethyl)-5-fluorophenyl)-benzo[b]thiophen-2-yl)-5-fluoropyrimidin-2-amine] |  |  |  |  | 
